Experimental data as given in PubChem BioAssay (NCI).
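These data come from cells grown in 96-well plates and exposed to compound for 48 hours at five concentrations. The concentration for 50% growth inhibition is given as GI50. TGI: concentration producing complete growth inhibition.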

How the values were obtained:
Assay in all cases: NCI anticancer screen, dose series, 48 h
786-0 renal = test system: 786-0 renal
A498 renal = test system: A498 renal
A549 NSCLC = test system: A549 NSCLC
ACHN renal = test system: ACHN renal
BT-549 breast = test system: BT-549 breast
CAKI-1 renal = test system: CAKI-1 renal
CCRF-CEM leukemia = test system: CCRF-CEM leukemia
COLO 205 colon = test system: COLO 205 colon
DU-145 prostate = test system: DU-145 prostate
EKVX NSCLC = test system: EKVX NSCLC
HCC-2998 colon = test system: HCC-2998 colon
HCT-116 colon = test system: HCT-116 colon
HCT-15 colon = test system: HCT-15 colon
HL-60(TB) leukemia = test system: HL-60(TB) leukemia
HOP-62 NSCLC = test system: HOP-62 NSCLC
HOP-92 NSCLC = test system: HOP-92 NSCLC
HS 578T breast = test system: HS 578T breast
HT29 colon = test system: HT29 colon
IGROV1 ovarian = test system: IGROV1 ovarian
K-562 leukemia = test system: K-562 leukemia
KM12 colon = test system: KM12 colon
LOX IMVI melanoma = test system: LOX IMVI melanoma
M14 melanoma = test system: M14 melanoma
MALME-3M melanoma = test system: MALME-3M melanoma
MCF7 breast = test system: MCF7 breast
MDA-MB-231 breast = test system: MDA-MB-231 breast
MDA-MB-435 = test system: MDA-MB-435
MDA-MB-468 breast = test system: MDA-MB-468 breast
MOLT-4 leukemia = test system: MOLT-4 leukemia
NCI-H226 lung = test system: NCI-H226 lung
NCI-H23 lung = test system: NCI-H23 lung
NCI-H460 lung = test system: NCI-H460 lung
NCI-H522 lung = test system: NCI-H522 lung
NCI/ADR-RES ovarian = test system: NCI/ADR-RES ovarian
OVCAR-3 ovarian = test system: OVCAR-3 ovarian
OVCAR-4 ovarian = test system: OVCAR-4 ovarian
OVCAR-5 ovarian = test system: OVCAR-5 ovarian
OVCAR-8 ovarian = test system: OVCAR-8 ovarian
PC-3 prostate = test system: PC-3 prostate
RPMI-8226 leukemia = test system: RPMI-8226 leukemia
RXF 393 renal = test system: RXF 393 renal
SF-268 CNS = test system: SF-268 CNS
SF-295 CNS = test system: SF-295 CNS
SF-539 CNS = test system: SF-539 CNS
SK-MEL-2 melanoma = test system: SK-MEL-2 melanoma
SK-MEL-28 melanoma = test system: SK-MEL-28 melanoma
SK-MEL-5 melanoma = test system: SK-MEL-5 melanoma
SK-OV-3 ovarian = test system: SK-OV-3 ovarian
SN12C renal = test system: SN12C renal
SNB-19 CNS = test system: SNB-19 CNS
SNB-75 CNS = test system: SNB-75 CNS
SR leukemia = test system: SR leukemia
SW-620 colon = test system: SW-620 colon
T-47D breast = test system: T-47D breast
TK-10 renal = test system: TK-10 renal
U251 CNS = test system: U251 CNS
UACC-257 melanoma = test system: UACC-257 melanoma
UACC-62 melanoma = test system: UACC-62 melanoma
UO-31 renal = test system: UO-31 renal

In the case of COc1cc2c(c(OC)c1OC)C(=O)CC(c1cccc(NC(=O)c3cccc([N+](=O)[O-])c3)c1)O2 (stereo not drawn), the GI50 (786-0 renal) is reported as 47.9 µM, the TGI (786-0 renal) is reported as over 100 µM and the GI50 (A498 renal) is reported as 67.4 µM. It also gave a TGI (A498 renal) of over 100 µM, a GI50 (A549 NSCLC) of 21.7 µM and a TGI (A549 NSCLC) of over 100 µM. The GI50 (ACHN renal) was 21.5 µM, the TGI (ACHN renal) was over 100 µM and the GI50 (BT-549 breast) was 5 µM. It also gave a TGI (BT-549 breast) of 57.7 µM, a GI50 (CAKI-1 renal) of 6.66 µM and a TGI (CAKI-1 renal) of over 100 µM. For the same compound, the GI50 (CCRF-CEM leukemia) was 3.44 µM, the TGI (CCRF-CEM leukemia) was over 100 µM and the GI50 (COLO 205 colon) was 28 µM. The TGI (COLO 205 colon) was over 100 µM, the GI50 (DU-145 prostate) was 21.5 µM and the TGI (DU-145 prostate) was over 100 µM. For the same compound, the GI50 (EKVX NSCLC) was over 100 µM, the TGI (EKVX NSCLC) was over 100 µM and the GI50 (HCC-2998 colon) was 55.1 µM. It also gave a TGI (HCC-2998 colon) of over 100 µM, a GI50 (HCT-116 colon) of 9.24 µM and a TGI (HCT-116 colon) of over 100 µM. The GI50 (HCT-15 colon) was 6.57 µM, the TGI (HCT-15 colon) was over 100 µM and the GI50 (HL-60(TB) leukemia) was 3.84 µM. For the same compound, the TGI (HL-60(TB) leukemia) was 29.1 µM, the GI50 (HOP-62 NSCLC) was 98.7 µM and the TGI (HOP-62 NSCLC) was over 100 µM. For the same compound, the GI50 (HOP-92 NSCLC) was 4.29 µM, the TGI (HOP-92 NSCLC) was over 100 µM and the GI50 (HS 578T breast) was 7.29 µM. For the same compound, the TGI (HS 578T breast) was over 100 µM, the GI50 (HT29 colon) was 26.8 µM and the TGI (HT29 colon) was over 100 µM. The GI50 (IGROV1 ovarian) was 18.6 µM, the TGI (IGROV1 ovarian) was over 100 µM and the GI50 (K-562 leukemia) was 6.03 µM. It also gave a TGI (K-562 leukemia) of over 100 µM, a GI50 (KM12 colon) of 3.39 µM and a TGI (KM12 colon) of over 100 µM. The GI50 (LOX IMVI melanoma) was 13.9 µM, the TGI (LOX IMVI melanoma) was over 100 µM and the GI50 (M14 melanoma) was 19.2 µM. It also gave a TGI (M14 melanoma) of over 100 µM, a GI50 (MALME-3M melanoma) of 10.1 µM and a TGI (MALME-3M melanoma) of over 100 µM. It also gave a GI50 (MCF7 breast) of 6.99 µM, a TGI (MCF7 breast) of over 100 µM and a GI50 (MDA-MB-231 breast) of 18.8 µM. For the same compound, the TGI (MDA-MB-231 breast) was over 100 µM, the GI50 (MDA-MB-435) was 4.3 µM and the TGI (MDA-MB-435) was 21.5 µM. The GI50 (MDA-MB-468 breast) was 2.07 µM, the TGI (MDA-MB-468 breast) was 8.94 µM and the GI50 (MOLT-4 leukemia) was 3.93 µM. It also gave a TGI (MOLT-4 leukemia) of over 100 µM, a GI50 (NCI-H226 lung) of 5.77 µM and a TGI (NCI-H226 lung) of over 100 µM. The GI50 (NCI-H23 lung) was 32.8 µM, the TGI (NCI-H23 lung) was over 100 µM and the GI50 (NCI-H460 lung) was 17.2 µM. For the same compound, the TGI (NCI-H460 lung) was over 100 µM, the GI50 (NCI-H522 lung) was 4.65 µM and the TGI (NCI-H522 lung) was 49.8 µM. The GI50 (NCI/ADR-RES ovarian) was 4.88 µM, the TGI (NCI/ADR-RES ovarian) was over 100 µM and the GI50 (OVCAR-3 ovarian) was 9.49 µM. For the same compound, the TGI (OVCAR-3 ovarian) was over 100 µM, the GI50 (OVCAR-4 ovarian) was 7.98 µM and the TGI (OVCAR-4 ovarian) was over 100 µM. For the same compound, the GI50 (OVCAR-5 ovarian) was 74.6 µM, the TGI (OVCAR-5 ovarian) was over 100 µM and the GI50 (OVCAR-8 ovarian) was 4.62 µM. It also gave a TGI (OVCAR-8 ovarian) of over 100 µM, a GI50 (PC-3 prostate) of 4.66 µM and a TGI (PC-3 prostate) of over 100 µM. For the same compound, the GI50 (RPMI-8226 leukemia) was 3.24 µM, the TGI (RPMI-8226 leukemia) was 48.6 µM and the GI50 (RXF 393 renal) was 3.62 µM. It also gave a TGI (RXF 393 renal) of over 100 µM, a GI50 (SF-268 CNS) of 18.5 µM and a TGI (SF-268 CNS) of over 100 µM. The GI50 (SF-295 CNS) was 18.7 µM, the TGI (SF-295 CNS) was over 100 µM and the GI50 (SF-539 CNS) was 29.3 µM. It also gave a TGI (SF-539 CNS) of over 100 µM, a GI50 (SK-MEL-2 melanoma) of 7.49 µM and a TGI (SK-MEL-2 melanoma) of 48.8 µM. The GI50 (SK-MEL-28 melanoma) was 35.2 µM, the TGI (SK-MEL-28 melanoma) was over 100 µM and the GI50 (SK-MEL-5 melanoma) was 6.3 µM. For the same compound, the TGI (SK-MEL-5 melanoma) was 46.7 µM, the GI50 (SK-OV-3 ovarian) was over 100 µM and the TGI (SK-OV-3 ovarian) was over 100 µM. For the same compound, the GI50 (SN12C renal) was 11.2 µM, the TGI (SN12C renal) was over 100 µM and the GI50 (SNB-19 CNS) was 36.9 µM. The TGI (SNB-19 CNS) was over 100 µM, the GI50 (SNB-75 CNS) was 7.73 µM and the TGI (SNB-75 CNS) was over 100 µM. The GI50 (SR leukemia) was 3.15 µM, the TGI (SR leukemia) was over 100 µM and the GI50 (SW-620 colon) was 10.9 µM. It also gave a TGI (SW-620 colon) of over 100 µM, a GI50 (T-47D breast) of 3.74 µM and a TGI (T-47D breast) of over 100 µM. It also gave a GI50 (TK-10 renal) of 51.6 µM, a TGI (TK-10 renal) of over 100 µM and a GI50 (U251 CNS) of 20.1 µM. The TGI (U251 CNS) was over 100 µM, the GI50 (UACC-257 melanoma) was 19.5 µM and the TGI (UACC-257 melanoma) was over 100 µM. For the same compound, the GI50 (UACC-62 melanoma) was 4.07 µM, the TGI (UACC-62 melanoma) was 65.4 µM and the GI50 (UO-31 renal) was 4.79 µM. For the same compound, the TGI (UO-31 renal) was over 100 µM.
